“Also recorded” adds a separate entry of the source.
Tests used:
[1] = target: T1, Sirt6 (Homo sapiens, UniProt Q8N6T7); conditions: literature value, cited from earlier work
[2] = system: PLC/PRF/5 cells; experiment: Colony formation assay in PLC/PRF/5 cells; format: cell-based; conditions: 30 μM, one week
[3] = system: A549-hACE2 cells; experiment: Cell viability assay in A549-hACE2 cells; conditions: 50 μM, 48 h
[4] = system: PLC/PRF/5 cells; experiment: Acetylated H3K9 / total H3 in PLC/PRF/5 cells, Western blot; format: cell-based; conditions: 30 μM, 24 hours
[5] = system: H1299 cells; experiment: Colony formation assay in H1299 cells; format: cell-based; conditions: 30 μM, one week
[6] = target: T1, Sirt6; experiment: Sirt6-dependent peptide deacetylation, FLUOR DE LYS / Sirt6 fluorometric activity kit; format: biochemical; conditions: mean ± SD, at least two independent experiments; for Activation Fold 30 μM: compound at 30 μM; for Activation Fold 100 μM: compound at 100 μM
Procedure: (§1) Sirt6/Sirt1/Sirt2/Sirt3 activity was tested by Activity Assay Kits (Abcam) according to the manufacturer's instruction with minor modification. […] All experiments were conducted at room temperature.

[7] = system: BV2 cells; experiment: LPS-induced inflammatory gene mRNA expression in BV2 cells, q-PCR; format: cell-based, murine; conditions: for LPS-induced expression of IL-1β, IL-6, MCP-1, and TNFα: 30 μM pretreatment 30 minutes; for LPS-induced proinflammatory cytokine/chemokine production: summary statement
[8] = system: retinal precursor cells (R28); experiment: MTT cell viability assay in R28 cells; format: cell-based; conditions: 24 hours
Procedure: FIGS. 5A-5C: FIGS. 5A-5C display the deacetylation effect and cytotoxicity of selected compounds. […] Nucleosomes extracted from HEK293T cells were incubated with 100 μM of selected compounds or Vehicle at 30° C. for 60 minutes. Acetylated H3K9 and total H3 were detected by Western blot. The level of acetylated H3K9 was quantified by Image Lab software. FIGS. 5B and 5C show the cell viability which was assessed by MTT assay. R28 cells were treated with 30 μM or 100 μM compounds for 24 hours. Data were presented as mean±SEM. The experiment was repeated at least three times. ***p<0.001; ****p<0.0001.
R28 cells were seeded in 96 well plates at a density of 1×10^4/well overnight, then treated with compounds for 24 h. MTT (MilliporeSigma) was added to cells (20 μL/well) and incubated for 3.5 h. After medium was removed, 100 μL dimethyl sulfoxide (DMSO) was added into each well. Absorbance was measured at 540 nm using a microplate reader.

[9] = system: SARS-CoV-2; experiment: microbe, parasite or virus in culture; format: cell-based
[10] = system: H1299 cells; experiment: Acetylated H3K9 / total H3 in H1299 cells, Western blot; format: cell-based; conditions: 30 μM, 24 hours
[11] = target: T1, Sirt6; experiment: Nucleosome test: Sirt6-dependent H3K9 deacetylation of nucleosomes from HEK293T cells, Western blot; format: biochemical; conditions: 100 μM, 30° C., 60 minutes
Procedure: . Nucleosomes extracted from HEK293T cells were incubated with 100 μM of selected compounds or Vehicle at 30° C. for 60 minutes. Acetylated H3K9 and total H3 were detected by Western blot. The level of acetylated H3K9 was quantified by Image Lab software. FIGS. 5B and 5C show the cell viability which was assessed by MTT assay. R28 cells were treated with 30 μM or 100 μM compounds for 24 hours. Data were presented as mean±SEM. The experiment was repeated at least three times. ***p<0.001; ****p<0.0001.
Next, effects of selected compounds were explored for Sirt6-dependent deacetylation of complete nucleosomes extracted from human embryonic kidney (HEK) 293T cells, as nucleosomes represent more physiologically relevant substrates. […]. Briefly, HEK 293T cells in 100 mm dish were lysed with lysis buffer supplemented with PIC and PMSF for 30 min. After centrifugation for 10 min at 5000 rpm at 4° C., supernatant was removed and nuclei pellet was resuspended with digestion buffer supplemented with PIC and PMSF for 5 min at 37° C. Working enzymatic sharing cocktail was added to digest the chromatin, and EDTA was added after incubation to stop the digestion. Digested nucleosome was obtained in the supernatant after centrifugation for 10 min at 15000 rpm at 4° C. and the concentration was quantified by measuring the absorbance at […]. 20 μg nucleosome was incubated in solution (1× buffer, 0.5 μL recombinant Sirt6 and […] NAD, from SIRT6 ACTIVITY ASSAY KIT) for 60 min. To test the effects of the compounds on Sirt6 activity, corresponding compound or DMSO control was added before incubation. The reaction mixture was analyzed by Western blot.
Proteins were extracted from cells with PIERCE RIPA BUFFER (89901, ThermoFisher Scientific), and protein concentration was determined using PIERCE BCA PROTEIN ASSAY KIT (23225, ThermoFisher Scientific). Equal amounts of protein were loaded and separated by SDS-PAGE gel. Next, separated proteins were transferred onto Nitrocellulose Blotting Membranes (A29457237, GE Healthcare Life science), and then the membranes were blocked by 5% non-fat dry milk. After incubation with corresponding primary antibodies against H3K9ac, H3 and Sirt6 at a 1:1000 dilution, or α-tubulin at a 1:5000 dilution, goat anti-mouse or goat anti-rabbit secondary antibodies at a 1:5000 dilution were applied. Finally, membranes were incubated with enhanced chemiluminescent and protein bands were detected by CHEMIDOC imaging system (Bio-Rad). Image-Lab software was used to analyze the intensities of the protein bands.

[12] = target: T2, Sirt1 (Homo sapiens, UniProt Q96EB6); experiment: Sirt1 deacetylation activity assay kit; conditions: time course, FIG. 3
T2 sequence (Q96EB6 1-747): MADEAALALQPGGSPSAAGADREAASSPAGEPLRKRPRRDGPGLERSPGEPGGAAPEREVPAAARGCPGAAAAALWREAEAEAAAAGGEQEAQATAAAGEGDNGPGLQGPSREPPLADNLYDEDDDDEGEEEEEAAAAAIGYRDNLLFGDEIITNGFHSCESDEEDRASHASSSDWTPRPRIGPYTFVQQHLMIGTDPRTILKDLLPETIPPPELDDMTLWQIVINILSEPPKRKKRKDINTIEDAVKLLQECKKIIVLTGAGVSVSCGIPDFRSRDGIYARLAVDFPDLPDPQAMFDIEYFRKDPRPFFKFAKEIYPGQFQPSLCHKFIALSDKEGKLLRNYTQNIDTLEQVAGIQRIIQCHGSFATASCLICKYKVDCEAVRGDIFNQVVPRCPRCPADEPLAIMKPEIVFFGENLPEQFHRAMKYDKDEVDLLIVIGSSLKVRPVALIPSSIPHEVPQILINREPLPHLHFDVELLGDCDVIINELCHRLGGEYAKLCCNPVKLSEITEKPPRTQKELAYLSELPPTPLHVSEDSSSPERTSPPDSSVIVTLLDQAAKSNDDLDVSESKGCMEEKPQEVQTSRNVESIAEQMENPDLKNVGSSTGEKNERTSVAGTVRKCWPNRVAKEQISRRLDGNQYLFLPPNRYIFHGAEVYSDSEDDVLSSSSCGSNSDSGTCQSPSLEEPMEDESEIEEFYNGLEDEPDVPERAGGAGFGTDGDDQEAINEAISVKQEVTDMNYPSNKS
Procedure: as §1

[13] = system: human hepatocellular carcinoma (HCC) cells; conditions: literature, cited from earlier work
[14] = system: HCC tumor; conditions: mouse xenograft models; literature; cited from earlier work
[15] = system: Sirt1, 2, and 3; conditions: literature; cited from earlier work
[16] = BV2 cells, 100 ng/mL LPS 6 hours, mRNA
[17] = BV2 cells, 30 μM, 100 ng/mL LPS 6 hours, mRNA

T1 sequence (Q8N6T7 whole entry): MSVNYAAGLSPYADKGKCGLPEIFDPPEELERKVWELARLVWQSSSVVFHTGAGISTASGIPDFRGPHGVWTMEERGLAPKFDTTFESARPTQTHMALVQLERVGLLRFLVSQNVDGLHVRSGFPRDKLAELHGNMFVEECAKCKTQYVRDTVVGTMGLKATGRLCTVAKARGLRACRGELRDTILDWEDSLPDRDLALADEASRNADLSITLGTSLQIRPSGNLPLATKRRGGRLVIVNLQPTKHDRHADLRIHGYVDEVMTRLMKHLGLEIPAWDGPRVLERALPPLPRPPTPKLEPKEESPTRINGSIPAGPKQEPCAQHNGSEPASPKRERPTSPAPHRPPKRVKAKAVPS

Structure (SMILES)	cytotoxicity at the highest tested concentration [3]	Activation Fold 30 μM [6]	Activation Fold 100 μM [6]	LPS-induced expression of IL-1β, IL-6, MCP-1, and TNFα [7, 16]	LPS-induced proinflammatory cytokine/chemokine production [7]	toxicity on retinal precursor cells (R28) ([8]; 30 μM)	potency in inhibiting SARS-CoV-2 infection (in words) [9]	acetylation of H3K9 in the nucleosome test [11]	further results
O=C(O)c1ccc2c(c1)C(=O)N(c1ccc(N(C(=O)c3c(Cl)cc(Cl)cc3Cl)C(=O)c3c(Cl)cc(Cl)cc3Cl)c(Cl)c1)C2=O [CL5D]	–	–	–	–	–	–	–	–	Sirt6 activation at 3 μM ([1]; concentration of 3 μM): 4 fold
OCCN1CCN(c2ncccc2C2Nc3ccccc3-n3cccc32)CC1 (stereo not drawn) [Compound 35, 2-(4-(3-(4,5-Dihydropyrrolo[1,2-a]quinoxalin-4-yl)pyridin-2-yl)piperazin-1-yl)ethan-1-ol]	none of these compounds exhibited significant cytotoxicity	2.92 ± 0.06 fold	5.72 ± 0.69 fold	strongly inhibited	strongly repressed	no obvious toxicity	micromolar potency	significantly decreased the acetylation of H3K9	colony formation [2]: only a slight inhibitory effect; Sirt6 deacetylation of H3K9 (acetylated H3K9 to total H3) [4]: no obvious influence; colony formation [5]: only a slight inhibitory effect; ICAM-1 induction [7, 17]: slight inhibition; toxicity on retinal precursor cells (R28) ([8]; 100 μM): no obvious toxicity; Sirt6 deacetylation of H3K9 (acetylated H3K9 to total H3) [10]: no obvious influence; effect on Sirt1 deacetylation [12]: no significant effects
COCCN1CCN(c2ncccc2C2Nc3ccccc3-n3cccc32)CC1 (stereo not drawn) [Compound 36, 4-(2-(4-(2-Methoxyethyl)piperazin-1-yl)pyridin-3-yl)-4,5-dihydropyrrolo[1,2-a]quinoxaline]	none of these compounds exhibited significant cytotoxicity	3.17 ± 0.21 fold	6.06 ± 0.13 fold	strongly inhibited	strongly repressed	no obvious toxicity	micromolar potency	significantly decreased the acetylation of H3K9	colony formation [2]: significantly inhibited; also recorded: about half; Sirt6 deacetylation of H3K9 (acetylated H3K9 to total H3) [4]: significantly activated Sirt6 to deacetylate H3K9; decrease of acetylated H3K9 when Sirt6 was knockdown by siRNA ([4]; Sirt6 siRNA): abolished; colony formation [5]: significantly inhibited; also recorded: about half; toxicity on retinal precursor cells (R28) ([8]; 100 μM): no obvious toxicity; Sirt6 deacetylation of H3K9 (acetylated H3K9 to total H3) [10]: significantly activated Sirt6 to deacetylate H3K9; decrease of acetylated H3K9 when Sirt6 was knockdown by siRNA ([10]; Sirt6 siRNA): abolished; effect on Sirt1 deacetylation [12]: no significant effects
OC1CN(CCN2CCN(c3ncccc3C3Nc4ccccc4-n4cccc43)CC2)C1 (stereo not drawn) [Compound 46, 1-(2-(4-(3-(4,5-Dihydropyrrolo[1,2-a]quinoxalin-4-yl)pyridin-2-yl)piperazin-1-yl)ethyl)azetidin-3-ol]	none of these compounds exhibited significant cytotoxicity	3.30 ± 0.11 fold	6.30 ± 0.25 fold	strongly inhibited	strongly repressed	no obvious toxicity	micromolar potency	significantly decreased the acetylation of H3K9	LPS-induced IL-1β, IL-6, and MCP-1 response [7, 17]: almost reversed; LPS-induced iNOS and CXCL10 expression [7, 17]: significantly repressed; VCAM-1 induction [7, 17]: obviously inhibit
c1ccc2c(c1)NC(c1cccnc1N1CCN(CCn3ccnc3)CC1)c1cccn1-2 (stereo not drawn) [Compound 50, 4-(2-(4-(2-(1H-Imidazol-1-yl)ethyl)piperazin-1-yl)pyridin-3-yl)-4,5-dihydropyrrolo[1,2-a]quinoxaline]	–	3.34 ± 0.19 fold	6.29 ± 0.02 fold	strongly inhibited	strongly repressed	no obvious toxicity	–	significantly decreased the acetylation of H3K9	ICAM-1 induction [7, 17]: slight inhibition; LPS-induced IL-1β, IL-6, and MCP-1 response [7, 17]: almost reversed; LPS-induced iNOS and CXCL10 expression [7, 17]: significantly repressed
COC(=O)c1cc(NS(=O)(=O)c2cc(Cl)cc(Cl)c2)ccc1S(=O)(=O)Nc1cc(Br)c(F)cc1C [MDL-800]	–	–	–	–	–	–	–	–	H3K9 and H3K56 deacetylation ([13]; human HCC cells, dose-dependently): significantly promoted; proliferation of HCC cells [13]: inhibited their proliferation; HCC tumor growth [14]: suppressed HCC tumor growth
CCCCCCCC/C=C\CCCCCCCC(=O)NCCO [Oleoylethanolamide]	–	–	–	–	–	–	–	–	maximum activation (Emax) of Sirt6 deacetylation [1]: 2.1 fold
c1cncc(C2Nc3ccccc3-n3cccc32)c1 (stereo not drawn) [UBCS039, reference compound]	–	–	–	strongly inhibited	–	–	micromolar potency	–	maximum activation (Emax) of Sirt6 deacetylation [1]: ~2 fold; effects on basal Sirt1, 2, and 3 deacetylation activities [15]: no obvious effects

From patent US20240327411A1, “SIRT6 ACTIVATORS” (The Board of Regents of The University of Texas System, priority 2022, published 2024)
